In PubChem BioAssay AID2305 (GlaxoSmithKline (GSK), 2010):

The molecules below were run on P. falciparum 3D7 growth, pLDH absorbance (assay: P. falciparum 3D7 growth inhibition, dose response, strain 3D7 (AID 2305)).
Cc1csc(NC(=O)c2cn(-c3ccccc3)nc2-c2cccs2)n1 was tested, and the IC50 was 0.91 µM.
O=C(/C=C/c1ccc(Cl)c(Cl)c1)NCCCCCCN1CCCN(C(=O)Nc2cc(F)cc(F)c2)CC1 showed an IC50 of 0.71 µM.
CNCCNCc1ccc(-c2cccc(-c3nc4ccc(F)cc4[nH]3)c2)cc1 was tested, and the IC50 was 1.13 µM.
With c1ccc2sc(Sc3ncnc4sccc34)nc2c1 the IC50 was 0.73 µM.
For CCCCOc1ccc(-c2nc3ccccc3[nH]2)cc1, the IC50 was 0.87 µM.
CCN1CCN(c2cc(C)c3cc(NC(=O)c4ccc(OC)c([N+](=O)[O-])c4)ccc3n2)CC1 was tested, and the IC50 was 0.55 µM.
In the case of COc1ccc2nccc(CCN3C[C@H](CNCc4ccc5c(n4)NC(=O)CS5)[C@H](O)C3)c2n1, the IC50 is reported as 1.46 µM.
O=C(NCc1ccccc1)O[C@@H]1CNCC[C@H]1c1ccc(C(O)Cc2ccccc2)cc1 (stereo not given in full) gave an IC50 of 0.58 µM.
CN=C(N)c1ccc(NC(=O)Nc2ccc(C(N)=NC)cc2)cc1 was tested, and the IC50 was 0.58 µM.
Molecule CCCNCc1ccc(-c2ccc(CN(CCOC)C(=O)CCCOCc3ccccc3)cc2)nc1 has an IC50 of 1.16 µM.
With CC(=NNC(=S)NCCc1ccccc1)c1ccccn1 the IC50 was 0.22 µM.
COc1cccc(-c2cc3nc4c(c(NCCCn5ccnc5)n3n2)CCCC4)c1 was tested, and the IC50 was 0.68 µM.
Molecule c1ccc2c(c1)CN(Cc1ccsc1)CC1(CCN(Cc3c[nH]c4cnccc34)CC1)O2 has an IC50 of 1.15 µM.
CCCc1cc(=O)oc2cc(OC)c(C(=O)CC(C)C)c(OC)c12 showed an IC50 of 1.01 µM.
Molecule Cc1cc(N[C@@H](CC(C)C)C(=O)NC2CCCC2)nc(NCCc2ccc(F)cc2)n1 has an IC50 of 0.79 µM.
With c1ccc(COc2ccccc2COc2ccccc2-c2ccc3cccnc3n2)cc1 the IC50 was 0.92 µM.
Work on Cc1[nH]c(C)c(-c2ccc(-c3ccc(C#N)cc3)nc2)c(=O)c1Br yielded an IC50 of 0.98 µM.
Oc1cc(-c2nc(C3(CNCc4ccc(Cl)cc4)CCCCC3)[nH]c2-c2ccncc2)ccc1Cl gave an IC50 of 0.13 µM.
Molecule c1ccc(Oc2ccc(Nc3ccnc(Nc4ccc5cn[nH]c5c4)n3)cc2)cc1 has an IC50 of 0.73 µM.
O=C1CSc2ccc(CNC3CCN(CCc4c(Cl)cnc5ccc(F)cc45)CC3)nc2N1 gave an IC50 of 0.43 µM.
In the case of Cc1ccc(F)c(NC(=O)c2c(-c3c(F)cccc3Cl)noc2C)c1, the IC50 is reported as 0.93 µM.
In the case of Cc1[nH]c(C)c(-c2ccc(-c3ccc4c(c3)OCO4)nc2)c(=O)c1Br, the IC50 is reported as 0.19 µM.
c1cncc(NCc2ccc(-c3cc4ccncc4cc3OC3CCNCC3)s2)c1 was tested, and the IC50 was 0.98 µM.
CC(=O)Nc1ccc(C(=O)Nc2cccc(-c3ccc(-c4nc5ccccc5[nH]4)s3)c2)cn1 was tested, and the IC50 was 0.18 µM.
Work on CN1CCN(c2nsc3ccc(-c4ccc(OCCN5CCCC5)cc4)cc23)CC1 yielded an IC50 of 0.83 µM.
Cc1ccc(CN2CCCN(Cc3cccc(NC(=O)c4cc5ccccc5s4)c3)CC2)cc1 showed an IC50 of 1.19 µM.
COc1ccc2nccc(N(C)CC3(O)CCN(CCc4ccc5c(c4)NC(=O)CS5)CC3)c2n1 gave an IC50 of 0.14 µM.
O=C(/C=C/c1ccc(Cl)cc1)NCCCCCN1CCC(C(=O)Nc2cccc(Cl)c2)CC1 gave an IC50 of 0.85 µM.
c1cc(CN2CCC(CCN3CCCCC3)CC2)cc(-c2cccc(-c3nc4ccccc4[nH]3)c2)c1 gave an IC50 of 0.14 µM.
Molecule CC(C)(C)OC(=O)NCc1ccc(Nc2nnc(-c3cccc(C(=O)NCc4cc(C(F)(F)F)cc(C(F)(F)F)c4)c3)o2)cc1 has an IC50 of 0.86 µM.
In the case of O=C(Nc1ccc(C(=O)OCC(c2ccccc2)c2ccccc2)cc1)N[C@@H](Cc1ccc(O)cc1)C(=O)NC1CCN(Cc2ccc(O)cc2)C1 (stereo not given in full), the IC50 is reported as 0.78 µM.
O=C(COc1ccc(Cl)c(Cl)c1)NCCCCCN1CCCN(C(=O)Nc2ccc(Cl)c(Cl)c2)CC1 was tested, and the IC50 was 1.73 µM.
Cc1ccccc1C1CCN(C2CCC(NC(=O)/C=C/c3cc(F)ccc3F)CC2)CC1 (stereo not given) showed an IC50 of 1.04 µM.
For COc1cccc(C(=O)NC(C=Cc2ccccc2)c2cc(Cl)c3cccnc3c2O)c1 (stereo not given), the IC50 was 0.86 µM.
Work on NCC1CCCN1Cc1ccc(-c2ccc(-c3nc4ccc(C(F)(F)F)cc4[nH]3)cc2)cc1 (stereo not given) yielded an IC50 of 0.96 µM.
O=C(Nc1cccc(CCNCc2ccccc2)c1)Nc1cccc2ccccc12 showed an IC50 of 0.73 µM.
Nc1c2ccccc2nc2ccc(-c3ccccc3)cc12 showed an IC50 of 0.14 µM.
In the case of COc1cccc(C(=O)Nc2ccc(-c3nc4ccccc4[nH]3)cc2)c1, the IC50 is reported as 0.8 µM.
CCC(C)(C)c1ccc2nc(N)nc(N)c2c1C was tested, and the IC50 was 0.01 µM.
CN1CCC(Oc2cc(NC(=O)Nc3ccc(-c4ccncc4)c(Cl)c3)ccc2Cl)CC1 was tested, and the IC50 was 0.53 µM.
In the case of Cc1cccc2[nH]c(-c3ccc(-c4ccc(CNCC5CCCO5)cc4)s3)nc12 (stereo not given), the IC50 is reported as 0.74 µM.
Work on CN1CCC(c2c[nH]c3ccc(NC(=O)Nc4ccc(-c5ccncc5)cc4Cl)cc23)CC1 yielded an IC50 of 0.84 µM.
c1ccc(Oc2ccc(Nc3ccnc4cc(-c5cccc(CNCCN6CCOCC6)c5)ccc34)cc2)cc1 showed an IC50 of 0.39 µM.
Work on NC1CCCN(Cc2cccc(-c3ccc(-c4nc5ccccc5[nH]4)cc3)c2)C1 (stereo not given) yielded an IC50 of 0.72 µM.
O=C(Nc1nc(-c2cc(F)ccc2F)cs1)c1cncc(Br)c1 gave an IC50 of 1.08 µM.
With CCc1cn2c3c(cc(C(=O)N[C@@H](Cc4cccc(F)c4)[C@H](O)CNC4CC4)cc13)N(C)S(=O)(=O)CC2 the IC50 was 0.14 µM.
With COc1ccc(Nc2nc(NN=Cc3ccc(O)cc3)nc(Nc3ccc([N+](=O)[O-])cc3)n2)cc1 the IC50 was 1.12 µM.
Work on O=C(NCCCCN1CCN(c2nsc3ccccc23)CC1)c1ccccc1C(=O)NCCCCN1CCN(c2nsc3ccccc23)CC1 yielded an IC50 of 0.89 µM.
Molecule CN(Cc1cnc2nc(N)nc(N)c2n1)c1ccc(C(=O)N[C@H](CCC(=O)OC(C)(C)C)C(=O)N[C@@H](CCC(=O)OC(C)(C)C)C(=O)OC(C)(C)C)cc1 has an IC50 of 1.02 µM.
Work on COc1ccc2nccc([C@@H](O)CN3CCC(NC(=O)/C=C/c4cccc(C)c4)CC3)c2c1 yielded an IC50 of 1.25 µM.
COc1ccc(Br)cc1/C=C/C(=O)Nc1cccc(C2CCN(C)CC2)c1 gave an IC50 of 0.52 µM.
COc1ccc(C=NNc2cc(C)nc3c(C)cccc23)c2ccccc12 showed an IC50 of 0.22 µM.
CC(C)Cn1cc(C2CCN(CCN3CCC(CNC(=O)c4ccc(-c5ccc(C#N)cc5)cc4)CC3)CC2)c2ccccc21 showed an IC50 of 0.79 µM.
COc1ccc(CNC(=O)C2Cc3ccccc3CN2Cc2ccc3ccccc3c2)cc1 (stereo not given) was tested, and the IC50 was 1.1 µM.
For N#Cc1ccc(CN2CCCN(c3ccc(NC(=O)c4ccc(F)cc4)cc3)CC2)cc1, the IC50 was 1.28 µM.
CCC(C)NCc1c(O)ccc2c(CNC(C)CC)c(O)ccc12 (stereo not given) was tested, and the IC50 was 0.59 µM.
With CCc1cn2c3c(cc(C(=O)N[C@@H](Cc4cccc(Cl)c4)[C@H](O)CNC4CCCCC4)cc13)N(C)S(=O)(=O)CC2 the IC50 was 0.06 µM.
For CS(=O)(=O)c1ccc(CNCc2ccc(-c3cccc(-c4nc5ccc(F)cc5[nH]4)c3)cc2)cc1, the IC50 was 0.32 µM.
Work on CC(C)c1cc(Oc2c(I)cc(CCN=C(N)N)cc2I)ccc1O yielded an IC50 of 0.79 µM.
Work on O=C(NC1CC1)c1ccc(Cn2c(SCc3cccc(Cl)c3)nc3ccccc3c2=O)cc1 yielded an IC50 of 0.42 µM.
Cc1cccc2[nH]c(-c3ccc(-c4ccc(CN5CC(C)OC(C)C5)cc4)cc3)nc12 (stereo not given) showed an IC50 of 0.52 µM.
For c1ccc(CN2CCN(CCCCNc3c4ccccc4nc4ccccc34)CC2)cc1, the IC50 was 0.12 µM.
Work on NC1CCN(Cc2cccc(-c3ccc(-c4nc5ccc(F)cc5[nH]4)cc3)c2)C1 (stereo not given) yielded an IC50 of 0.6 µM.
In the case of Cc1ccc(CC(C)NCC(O)c2cccc(C(F)(F)F)c2)c(C)c1 (stereo not given), the IC50 is reported as 0.7 µM.
C=CCOc1cccc2c1CCN(CCN1CCC(NC(=O)c3ccc(-c4ccc(Cl)cc4)cc3)CC1)C2 gave an IC50 of 0.67 µM.
Work on COc1ccc(-c2onc(C(F)(F)F)c2-c2ccc(Br)cc2)c(O)c1 yielded an IC50 of 0.24 µM.
O=C(c1cc(-c2cccs2)[nH]n1)N1CCN(S(=O)(=O)c2ccc(Cl)s2)CC1 gave an IC50 of 0.87 µM.
For Fc1ccc2nc(-c3cccc(-c4ccc(CN5CCN(c6cnccn6)CC5)cc4)c3)[nH]c2c1, the IC50 was 0.89 µM.
CN1CCOc2ccc(Nc3nnc(-c4cccc(-c5cccnc5)c4)o3)cc2C1 was tested, and the IC50 was 0.1 µM.
Fc1cccc(COc2ccc(Nc3ncnc4ccc(C#C[C@H]5CCCN5)cc34)cc2Cl)c1 showed an IC50 of 0.88 µM.
